# Laboratory results from PubChem BioAssay AID1963828 (Molecular Pharmacology Branch, DTP, NCI, 2024).
# System: 991263-137-R1-J2-PDC complex spheroid viability
# Test: Anticancer human tumor 991263-137-R1-J2-PDC patient-derived colon adenocarcinoma cell line growth inhibition [POLQ]
# Conditions: for IC50: curve of first compound; for viability, T/C: stronger effect = lower value
# In short: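 PDC + HUVEC + MSC complex spheroids; POLQ inhibitors ± partner drugs; top conc. at/near clinical Cmax, else 10 microM (SN-38 1 microM), half-log dilutions; 37 degrees C, 5% CO2.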
# [1] = second compound 0.0316 µM, first compound 0.0316 µM
# [2] = second compound 0.0316 µM, first compound 0.1 µM
# [3] = second compound 0.0316 µM, first compound 0.316 µM
# [4] = second compound 0.0316 µM, first compound 1 µM
# [5] = second compound 0.1 µM, first compound 0.0316 µM
# [6] = second compound 0.1 µM, first compound 0.1 µM
# [7] = second compound 0.1 µM, first compound 0.316 µM
# [8] = second compound 0.1 µM, first compound 1 µM
# [9] = second compound 0.316 µM, first compound 0.0316 µM
# [10] = second compound 0.316 µM, first compound 0.1 µM
# [11] = second compound 0.316 µM, first compound 0.316 µM
# [12] = second compound 0.316 µM, first compound 1 µM
# [13] = second compound 1 µM, first compound 0.0316 µM
# [14] = second compound 1 µM, first compound 0.1 µM
# [15] = second compound 1 µM, first compound 0.316 µM
# [16] = second compound 1 µM, first compound 1 µM
# [17] = second compound 3.16 µM, first compound 0.0316 µM
# [18] = second compound 3.16 µM, first compound 0.1 µM
# [19] = second compound 3.16 µM, first compound 0.316 µM
# [20] = second compound 3.16 µM, first compound 1 µM
# [21] = second compound 10 µM, first compound 0.0316 µM
# [22] = second compound 10 µM, first compound 0.1 µM
# [23] = second compound 10 µM, first compound 0.316 µM
# [24] = second compound 10 µM, first compound 1 µM
# [25] = second compound 0.0316 µM, first compound 3.16 µM
# [26] = second compound 0.0316 µM, first compound 10 µM
# [27] = second compound 0.1 µM, first compound 3.16 µM
# [28] = second compound 0.1 µM, first compound 10 µM
# [29] = second compound 0.316 µM, first compound 3.16 µM
# [30] = second compound 0.316 µM, first compound 10 µM
# [31] = second compound 1 µM, first compound 3.16 µM
# [32] = second compound 1 µM, first compound 10 µM
# [33] = second compound 3.16 µM, first compound 3.16 µM
# [34] = second compound 3.16 µM, first compound 10 µM
# [35] = second compound 10 µM, first compound 3.16 µM
# [36] = second compound 10 µM, first compound 10 µM
# 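Also: spheroids exposed to compounds for 7 days before readout.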
# 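For viability, T/C in this document: 100% = DMSO vehicle control viability.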
smiles,measurement,setting,value
C=CCn1c(=O)c2cnc(Nc3ccc(N4CCN(C)CC4)cc3)nc2n1-c1cccc(C(C)(C)O)n1 + Cc1cccc(N(C)C(=O)C2C(O)CCN2c2nc(C)cc(C(F)(F)F)c2C#N)c1,IC50,second compound 0.0316 µM,> 1 µM
same,IC50,second compound 0.1 µM,> 1 µM
same,IC50,second compound 0.316 µM,> 1 µM
same,IC50,second compound 1 µM,> 1 µM
same,IC50,second compound 3.16 µM,> 1 µM
same,IC50,second compound 10 µM,> 1 µM
same,"viability, T/C","second compound 0.0316 µM, first compound 0.00316 µM",103%
same,"viability, T/C","second compound 0.0316 µM, first compound 0.01 µM",114%
same,"viability, T/C",[1],103%
same,"viability, T/C",[2],115%
same,"viability, T/C",[3],101%
same,"viability, T/C",[4],93%
same,"viability, T/C","second compound 0.1 µM, first compound 0.00316 µM",108%
same,"viability, T/C","second compound 0.1 µM, first compound 0.01 µM",110%
same,"viability, T/C",[5],107%
same,"viability, T/C",[6],102%
same,"viability, T/C",[7],108%
same,"viability, T/C",[8],90.1%
same,"viability, T/C","second compound 0.316 µM, first compound 0.00316 µM",115%
same,"viability, T/C","second compound 0.316 µM, first compound 0.01 µM",103%
same,"viability, T/C",[9],98.1%
same,"viability, T/C",[10],119%
same,"viability, T/C",[11],108%
same,"viability, T/C",[12],102%
same,"viability, T/C","second compound 1 µM, first compound 0.00316 µM",99.1%
same,"viability, T/C","second compound 1 µM, first compound 0.01 µM",101%
same,"viability, T/C",[13],96%
same,"viability, T/C",[14],97.6%
same,"viability, T/C",[15],110%
same,"viability, T/C",[16],94.2%
same,"viability, T/C","second compound 3.16 µM, first compound 0.00316 µM",100%
same,"viability, T/C","second compound 3.16 µM, first compound 0.01 µM",101%
same,"viability, T/C",[17],98.4%
same,"viability, T/C",[18],101%
same,"viability, T/C",[19],103%
same,"viability, T/C",[20],98.3%
same,"viability, T/C","second compound 10 µM, first compound 0.00316 µM",98.8%
same,"viability, T/C","second compound 10 µM, first compound 0.01 µM",110%
same,"viability, T/C",[21],99.5%
same,"viability, T/C",[22],106%
same,"viability, T/C",[23],105%
same,"viability, T/C",[24],95.2%
CC1COCCN1c1cc(C2(S(C)(=N)=O)CC2)nc(-c2ccnc3[nH]ccc23)n1 (stereo unspecified) + Cc1cccc(N(C)C(=O)C2C(O)CCN2c2nc(C)cc(C(F)(F)F)c2C#N)c1,IC50,second compound 0.0316 µM,> 10 µM
same,IC50,second compound 0.1 µM,> 10 µM
same,IC50,second compound 0.316 µM,> 10 µM
same,IC50,second compound 1 µM,> 10 µM
same,IC50,second compound 3.16 µM,> 10 µM
same,IC50,second compound 10 µM,> 10 µM
same,"viability, T/C",[1],96.9%
same,"viability, T/C",[2],107%
same,"viability, T/C",[3],122%
same,"viability, T/C",[4],104%
same,"viability, T/C",[25],111%
same,"viability, T/C",[26],90.9%
same,"viability, T/C",[5],101%
same,"viability, T/C",[6],103%
same,"viability, T/C",[7],95%
same,"viability, T/C",[8],96.2%
same,"viability, T/C",[27],117%
same,"viability, T/C",[28],106%
same,"viability, T/C",[9],95.7%
same,"viability, T/C",[10],108%
same,"viability, T/C",[11],73.7%
same,"viability, T/C",[12],112%
same,"viability, T/C",[29],84%
same,"viability, T/C",[30],70%
same,"viability, T/C",[13],98.7%
same,"viability, T/C",[14],102%
same,"viability, T/C",[15],94.3%
same,"viability, T/C",[16],75.4%
same,"viability, T/C",[31],96.7%
same,"viability, T/C",[32],92.5%
same,"viability, T/C",[17],88.1%
same,"viability, T/C",[18],95.2%
same,"viability, T/C",[19],99.2%
same,"viability, T/C",[20],106%
same,"viability, T/C",[33],101%
same,"viability, T/C",[34],101%
same,"viability, T/C",[21],93.2%
same,"viability, T/C",[22],97%
same,"viability, T/C",[23],98.8%
same,"viability, T/C",[24],98.5%
same,"viability, T/C",[35],98.8%
same,"viability, T/C",[36],77%
CCCS(=O)(=O)Nc1ccc(F)c(C(=O)c2c[nH]c3ncc(-c4ccc(Cl)cc4)cc23)c1F + Cc1cccc(N(C)C(=O)C2C(O)CCN2c2nc(C)cc(C(F)(F)F)c2C#N)c1,IC50,second compound 0.0316 µM,> 10 µM
same,IC50,second compound 0.1 µM,> 10 µM
same,IC50,second compound 0.316 µM,> 10 µM
same,IC50,second compound 1 µM,> 10 µM
same,IC50,second compound 3.16 µM,> 10 µM
same,IC50,second compound 10 µM,> 10 µM
same,"viability, T/C",[1],112%
same,"viability, T/C",[2],98.6%
same,"viability, T/C",[3],98%
same,"viability, T/C",[4],103%
same,"viability, T/C",[25],106%
same,"viability, T/C",[26],99.9%
same,"viability, T/C",[5],103%
same,"viability, T/C",[6],109%
same,"viability, T/C",[7],105%
same,"viability, T/C",[8],114%
same,"viability, T/C",[27],106%
same,"viability, T/C",[28],104%
same,"viability, T/C",[9],101%
same,"viability, T/C",[10],102%
same,"viability, T/C",[11],85.2%
same,"viability, T/C",[12],97.5%
same,"viability, T/C",[29],101%
same,"viability, T/C",[30],106%
same,"viability, T/C",[13],96.8%
same,"viability, T/C",[14],97.5%
same,"viability, T/C",[15],95.5%
same,"viability, T/C",[16],95.7%
same,"viability, T/C",[31],100%
same,"viability, T/C",[32],92.3%
same,"viability, T/C",[17],99.8%
same,"viability, T/C",[18],96.7%
same,"viability, T/C",[19],93.5%
same,"viability, T/C",[20],99.1%
same,"viability, T/C",[33],109%
same,"viability, T/C",[34],84.5%
same,"viability, T/C",[21],101%
same,"viability, T/C",[22],98.5%
same,"viability, T/C",[23],97.3%
same,"viability, T/C",[24],92.5%
same,"viability, T/C",[35],101%
same,"viability, T/C",[36],89.2%
